Patent US20060063759A1, “Tricyclic steroid hormone nuclear receptor modulators” (priority 2002, published 2006)
pKi: −log10 of the molar value.

Key:
glucocorticoid receptor = target: T1, glucocorticoid receptor (Homo sapiens, UniProt P04150); assay: Glucocorticoid Receptor Binding Assay ([3H]-dexamethasone, A549 cell extract); details: [3H]-dexamethasone binding, read-out: GR Ki
T1 construct: containing 50-200 ug of A549 cell extract and 1.86 nM [^3H]-dexamethasone; host or cells: A549 human lung epithelial cells (sonicated cell extract)
T1 sequence (P04150 1-777): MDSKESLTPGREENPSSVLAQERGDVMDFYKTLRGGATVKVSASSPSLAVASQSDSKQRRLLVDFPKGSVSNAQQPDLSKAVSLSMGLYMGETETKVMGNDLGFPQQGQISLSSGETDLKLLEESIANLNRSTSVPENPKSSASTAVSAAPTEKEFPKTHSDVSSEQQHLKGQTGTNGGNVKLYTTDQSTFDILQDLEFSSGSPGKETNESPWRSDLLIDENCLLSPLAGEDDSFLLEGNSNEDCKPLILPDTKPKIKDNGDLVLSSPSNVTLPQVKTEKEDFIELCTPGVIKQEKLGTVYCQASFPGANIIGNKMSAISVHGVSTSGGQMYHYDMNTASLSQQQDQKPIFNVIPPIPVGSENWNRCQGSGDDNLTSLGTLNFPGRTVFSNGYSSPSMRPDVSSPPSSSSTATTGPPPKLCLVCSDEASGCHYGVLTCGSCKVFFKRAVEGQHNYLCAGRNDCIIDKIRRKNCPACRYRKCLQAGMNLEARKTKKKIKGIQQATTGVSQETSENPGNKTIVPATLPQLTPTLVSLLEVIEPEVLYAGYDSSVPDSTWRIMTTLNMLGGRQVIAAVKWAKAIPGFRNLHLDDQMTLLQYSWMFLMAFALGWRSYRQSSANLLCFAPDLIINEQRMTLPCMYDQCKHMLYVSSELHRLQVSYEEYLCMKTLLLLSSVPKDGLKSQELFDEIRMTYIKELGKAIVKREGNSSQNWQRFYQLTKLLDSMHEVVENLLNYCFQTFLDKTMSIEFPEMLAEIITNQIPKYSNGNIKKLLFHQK
Procedure, shortened: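 Displacement of [3H]-dexamethasone (1.86 nM) from glucocorticoid receptor in sonicated A549 lung epithelial cell extracts, 16 h at 4 °C, pH 7.2 molybdate-containing buffer. Bound radioactivity was scintillation-counted after charcoal/dextran stripping of free ligand.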

human MR = target: T2, human MR (Homo sapiens, UniProt P08235); assay: Mineralocorticoid Receptor Binding Assay ([3H]-aldosterone); details: [3H]-aldosterone binding, human MR expressed in Sf9 cells; read-out: MR Ki
T2 construct: The full length human MR gene is cloned from a human kidney or human brain cDNA library; His tag from the pAcHLT vector (own knowledge); made in house; host or cells: Sf9 insect cells (baculovirus, pAcHLT transfer vector)
T2 sequence (P08235 1-984): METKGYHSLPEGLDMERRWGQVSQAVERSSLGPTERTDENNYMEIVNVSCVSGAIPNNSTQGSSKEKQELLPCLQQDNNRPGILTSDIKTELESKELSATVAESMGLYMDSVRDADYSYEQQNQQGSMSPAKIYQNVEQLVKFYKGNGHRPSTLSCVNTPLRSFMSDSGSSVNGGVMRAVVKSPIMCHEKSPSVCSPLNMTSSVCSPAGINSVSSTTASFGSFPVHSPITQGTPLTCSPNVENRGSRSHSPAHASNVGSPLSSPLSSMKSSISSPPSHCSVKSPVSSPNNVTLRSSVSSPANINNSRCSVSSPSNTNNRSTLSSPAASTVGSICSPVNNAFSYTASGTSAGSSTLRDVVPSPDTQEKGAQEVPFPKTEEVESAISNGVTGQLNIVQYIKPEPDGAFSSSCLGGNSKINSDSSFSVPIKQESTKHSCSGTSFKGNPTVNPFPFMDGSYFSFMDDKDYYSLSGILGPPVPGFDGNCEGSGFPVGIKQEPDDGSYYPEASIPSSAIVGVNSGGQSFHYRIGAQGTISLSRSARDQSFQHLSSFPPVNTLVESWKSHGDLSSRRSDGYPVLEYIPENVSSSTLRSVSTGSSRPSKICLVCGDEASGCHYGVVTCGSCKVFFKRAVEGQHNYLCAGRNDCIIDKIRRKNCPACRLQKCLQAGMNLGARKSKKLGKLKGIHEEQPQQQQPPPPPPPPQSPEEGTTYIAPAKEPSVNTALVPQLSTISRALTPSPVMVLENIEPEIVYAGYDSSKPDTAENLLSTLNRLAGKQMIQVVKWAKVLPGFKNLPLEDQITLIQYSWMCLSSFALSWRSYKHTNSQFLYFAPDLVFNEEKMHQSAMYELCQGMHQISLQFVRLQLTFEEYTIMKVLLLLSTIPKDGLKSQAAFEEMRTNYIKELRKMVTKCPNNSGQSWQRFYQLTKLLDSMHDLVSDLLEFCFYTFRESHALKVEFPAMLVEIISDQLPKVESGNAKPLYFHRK
Procedure, shortened: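 Receptor source: freeze-thaw lysate of baculovirus-infected Sf9 cells carrying full-length human MR, 20-25 μg protein. Incubation ~16 h at 4 °C with shaking, pH 7.5 buffer containing 30 mM sodium molybdate and 10% glycerol.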

[1] = in combination with standard CHF therapy, patients suffering from advanced CHF; cited from earlier work

| Compound | pKi (glucocorticoid receptor) | pKi (human MR) | melting point [°C] | reduced cardiac related mortality [1] [%] | reduced frequency of hospitalization [1] [%] |
| --- | --- | --- | --- | --- | --- |
| CCS(=O)(=O)Nc1cccc(C=C2c3ccccc3CCc3ccccc32)c1 [Example 91, Ethanesulfonic acid [3-(10,11-hydro-dibenzo[a,d]cyclohepten-5-ylidenemethyl)-phenyl]-amide] | > 6.30 | > 6.30 | 180.2 | – | – |
| CC(C)S(=O)(=O)Nc1cccc(C=C2c3ccccc3CCc3ccccc32)c1 [Example 92, Propane-2-sulfonic acid [3-(10,11-dihydro-dibenzo[a,d]cyclohepten-5-ylidenemethyl)-phenyl]-amide] | > 6.30 | > 6.30 | 187.7 | – | – |
| O=S(=O)(Nc1cccc(C=C2c3ccccc3CCc3ccccc32)c1)c1ccccc1 [Example 93, N-[3-(10,11-Dihydrodibenzo[a,d]cyclohepten-5-ylidenemethyl)-phenyl]-benzenesulfonamide] | > 6.30 | > 6.30 | 121.9 | – | – |
| Cc1noc(C)c1S(=O)(=O)Nc1cccc(C=C2c3ccccc3CCc3ccccc32)c1 [Example 94, 3,5-Dimethyl-isoxazole-4-sulfonic acid [3-(10,11-dihydro-dibenzo[a,d]cyclohepten-5-ylidenemethyl)-phenyl]-amide] | > 6.30 | > 6.30 | 149.3 | – | – |
| Cn1cnc(S(=O)(=O)Nc2cccc(C=C3c4ccccc4CCc4ccccc43)c2)c1 [Example 95, 1-Methyl-1H-imidazole-4-sulfonic acid [3-(10,11-dihydro-dibenzo[a,d]cyclohepten-5-ylidenemethyl)-phenyl]-amide] | > 6.00 | > 6.30 | 257 | – | – |
| CC(=O)Nc1ccc(C=C2c3ccccc3CCc3ccccc32)cc1 [Example 116, N-[4-(10,11-Dihydro-dibenzo[a,d]cyclohepten-5-ylidenemethyl)-phenyl]-acetamide] | > 6.30 | > 6.30 | 134.8 | – | – |
| Oc1cccc(CC2c3ccccc3CCc3ccccc32)c1 [Example 126, 3-(10,11-Dihydro-5H-dibenzo[a,d]cyclohepten-5-ylmethyl)-phenol] | > 6.30 | > 6.30 | 76.6 | – | – |
| Oc1cccc(C=C2c3ccccc3CCc3ccccc32)c1F [Example 153, 3-(10,11-Dihydro-dibenzo[a,d]cyclohepten-5-ylidenemethyl)-2-fluoro-phenol] | > 6.00 | > 6.30 | 143.2 | – | – |
| Oc1cccc(/C=C2\c3ccc(Cl)cc3CCc3cccnc32)c1 [Example 245, 3-(8-Chloro-5,6-dihydro-benzo[5,6]cyclohepta[1,2-b]pyridin-11-ylidenemethyl)-phenol] | > 5.00 | > 6.30 | > 250 | – | – |
| CS(=O)(=O)Nc1cccc(C=C2c3ccccc3C3C(c4ccccc42)C3(Cl)Cl)c1 (centres unmarked) [Example 259, N-[3-(8,8-Dichloro-4-ylidenemethyl-2,3,5,6-dibenzobicyclo[5.1.0]octane)-phenyl]-methanesulfonamide] | > 5.00 | > 6.30 | 199 to 201 | – | – |
| CC(=O)S[C@@H]1CC2=CC(=O)CC[C@]2(C)[C@H]2CC[C@@]3(C)[C@@H](CC[C@@]34CCC(=O)O4)[C@H]12 [spironolactone] | – | – | – | 30 | 35 |

The next lines start with results.

| pKi (glucocorticoid receptor) | pKi (human MR) | melting point [°C] | Compound | reduced cardiac related mortality [1] [%] | reduced frequency of hospitalization [1] [%] |
| --- | --- | --- | --- | --- | --- |
| > 6.00 | > 6.30 | 210.7 | CS(=O)(=O)Nc1ccc(C=C2c3ccccc3CCc3ccccc32)cc1 [Example 99, N-[4-(10,11-Dihydro-dibenzo[a,d]cyclohepten-5-ylidenemethyl)-phenyl]-methanesulfonamide] | – | – |
| > 6.30 | > 6.30 | 252.1 | O=C(Nc1ccc(C=C2c3ccccc3CCc3ccccc32)cc1)c1ccncc1 [Example 117, N-[4-(10,11-Dihydro-dibenzo[a,d]cyclohepten-5-ylidenemethyl)-phenyl]-isonicotinamide] | – | – |
| > 6.30 | > 6.30 | 182.4 | CS(=O)(=O)Nc1cccc(C=C2c3ccc(Cl)cc3CCc3cc(Cl)ccc32)c1 [Example 182, N-[3-(2,8-Dichloro-10,11-dihydro-dibenzo[a,d]cyclohepten-5-ylidenemethyl)-phenyl]-methanesulfonamide] | – | – |
| > 6.30 | > 6.30 | 109.6 | COc1ccc2c(c1)CCc1cc(OC)ccc1C2=Cc1cccc(NS(C)(=O)=O)c1 [Example 191, N-[3-(2,8-Dimethoxy-10,11-dihydro-dibenzo[a,d]cyclohepten-5-ylidenemethyl)-phenyl]-methanesulfonamide] | – | – |
| > 6.00 | > 6.30 | 129.5 | Oc1cccc(C=C2c3cccc(F)c3CCc3c(F)cccc32)c1 [Example 202, 3-(1,9-Difluoro-10,11-dihydro-dibenzo[a,d]cyclohepten-5-ylidenemethyl)-phenol] | – | – |
| > 5.00 | > 6.30 | 221.2 | Oc1cccc(/C=C2/c3ccc(Cl)cc3CCc3cccnc32)c1 [Example 244, 3-(8-Chloro-5,6-dihydro-benzo[5,6]cyclohepta[1,2-b]pyridin-11-ylidenemethyl)-phenol] | – | – |
| > 6.00 | > 6.30 | 257 | O=c1[nH]c2ccc(C=C3c4ccc(F)cc4CCc4cc(F)ccc43)cc2[nH]1 [Example 437, 5-(2,8-difluoro-10,11-dihydro-dibenzo[a,d]cyclohepten-5-ylidenemethyl)-1,3-dihydro-benzoimidazol-2-one] | – | – |
